This passage reports AC50 results from ChEMBL document CHEMBL5291721, “A preclinical secondary pharmacology resource illuminates target-adverse drug reaction associations of marketed drugs” (Nat Commun, 2023).

In assay [1] the target is T1, 5-hydroxytryptamine receptor 1A (Homo sapiens, UniProt P08908).
T1 sequence (P08908 whole entry): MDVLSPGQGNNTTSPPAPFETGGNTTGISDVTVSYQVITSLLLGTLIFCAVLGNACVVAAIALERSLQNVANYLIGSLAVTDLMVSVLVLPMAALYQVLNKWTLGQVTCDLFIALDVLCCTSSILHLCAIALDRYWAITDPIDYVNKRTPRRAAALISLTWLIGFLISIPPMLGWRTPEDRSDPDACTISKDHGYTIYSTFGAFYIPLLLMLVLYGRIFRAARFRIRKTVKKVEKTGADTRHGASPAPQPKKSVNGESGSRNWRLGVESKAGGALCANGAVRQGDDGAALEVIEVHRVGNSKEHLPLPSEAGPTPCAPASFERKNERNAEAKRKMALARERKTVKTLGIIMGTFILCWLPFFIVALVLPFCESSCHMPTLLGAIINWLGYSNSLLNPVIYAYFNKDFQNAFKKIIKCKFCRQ

Assay [2] deals with D(1A) dopamine receptor (Homo sapiens, UniProt P21728).
Chain of D(1A) dopamine receptor (P21728 whole entry): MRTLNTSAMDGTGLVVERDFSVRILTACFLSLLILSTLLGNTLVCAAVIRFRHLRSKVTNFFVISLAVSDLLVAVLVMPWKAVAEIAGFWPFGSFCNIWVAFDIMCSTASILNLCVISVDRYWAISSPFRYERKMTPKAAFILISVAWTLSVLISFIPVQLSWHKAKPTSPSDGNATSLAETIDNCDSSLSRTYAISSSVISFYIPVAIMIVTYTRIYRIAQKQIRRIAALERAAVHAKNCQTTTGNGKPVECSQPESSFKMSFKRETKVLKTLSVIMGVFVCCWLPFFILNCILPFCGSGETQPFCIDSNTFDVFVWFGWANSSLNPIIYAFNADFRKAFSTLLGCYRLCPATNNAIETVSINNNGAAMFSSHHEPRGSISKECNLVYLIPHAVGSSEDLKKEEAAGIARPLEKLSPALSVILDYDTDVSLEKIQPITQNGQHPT
In assay [3] the target is T2, Neuropeptide Y receptor type 1 (Homo sapiens, UniProt P25929).
T2 sequence (P25929 whole entry): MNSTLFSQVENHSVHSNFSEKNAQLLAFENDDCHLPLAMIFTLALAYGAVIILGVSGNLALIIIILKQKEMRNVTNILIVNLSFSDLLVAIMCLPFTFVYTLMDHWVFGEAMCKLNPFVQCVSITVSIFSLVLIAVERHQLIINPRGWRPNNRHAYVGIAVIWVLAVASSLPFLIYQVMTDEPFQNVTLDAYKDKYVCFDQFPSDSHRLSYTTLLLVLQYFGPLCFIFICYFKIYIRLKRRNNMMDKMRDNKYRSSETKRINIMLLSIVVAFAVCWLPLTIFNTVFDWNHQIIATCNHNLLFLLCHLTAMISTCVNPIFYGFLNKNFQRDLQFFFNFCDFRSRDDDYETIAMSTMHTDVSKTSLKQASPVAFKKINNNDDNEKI

The target of assay [4] is T3, Amine oxidase [flavin-containing] A (Homo sapiens, UniProt P21397).
T3 sequence (P21397 whole entry): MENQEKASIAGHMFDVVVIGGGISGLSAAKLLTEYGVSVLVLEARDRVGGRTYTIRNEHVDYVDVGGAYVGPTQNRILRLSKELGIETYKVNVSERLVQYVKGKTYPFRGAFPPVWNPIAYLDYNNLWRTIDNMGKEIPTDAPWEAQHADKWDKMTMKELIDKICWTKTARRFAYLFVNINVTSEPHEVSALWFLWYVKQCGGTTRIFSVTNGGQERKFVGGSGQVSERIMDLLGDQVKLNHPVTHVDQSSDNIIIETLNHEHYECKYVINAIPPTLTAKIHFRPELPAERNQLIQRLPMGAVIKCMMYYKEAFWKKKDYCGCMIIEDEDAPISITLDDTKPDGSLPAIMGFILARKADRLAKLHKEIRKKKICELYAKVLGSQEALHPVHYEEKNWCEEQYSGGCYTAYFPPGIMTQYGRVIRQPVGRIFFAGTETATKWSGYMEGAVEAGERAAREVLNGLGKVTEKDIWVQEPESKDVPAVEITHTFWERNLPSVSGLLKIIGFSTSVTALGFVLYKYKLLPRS
Type of assay: functional.

For assay [5], the target named is Sodium-dependent dopamine transporter (Homo sapiens, UniProt Q01959).
Chain of Sodium-dependent dopamine transporter (Q01959 whole entry): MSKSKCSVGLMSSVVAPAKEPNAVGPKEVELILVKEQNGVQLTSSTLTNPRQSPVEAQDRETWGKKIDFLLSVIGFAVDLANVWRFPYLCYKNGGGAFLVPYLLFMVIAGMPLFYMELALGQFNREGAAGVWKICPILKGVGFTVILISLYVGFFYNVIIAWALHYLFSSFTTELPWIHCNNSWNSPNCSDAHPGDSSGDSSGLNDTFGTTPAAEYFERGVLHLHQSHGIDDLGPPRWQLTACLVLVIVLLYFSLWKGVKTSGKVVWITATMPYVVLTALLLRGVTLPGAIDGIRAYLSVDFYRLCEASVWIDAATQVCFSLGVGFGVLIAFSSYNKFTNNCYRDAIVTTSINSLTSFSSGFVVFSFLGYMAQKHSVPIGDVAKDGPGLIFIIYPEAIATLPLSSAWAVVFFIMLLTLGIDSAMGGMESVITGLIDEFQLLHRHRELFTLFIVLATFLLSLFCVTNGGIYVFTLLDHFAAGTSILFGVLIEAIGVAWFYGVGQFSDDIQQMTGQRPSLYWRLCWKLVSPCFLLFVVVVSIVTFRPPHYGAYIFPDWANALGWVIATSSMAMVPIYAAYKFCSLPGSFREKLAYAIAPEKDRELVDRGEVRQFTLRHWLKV
Assay [6] addresses T4, Thromboxane A2 receptor (Homo sapiens, UniProt P21731).
T4 sequence (P21731 whole entry): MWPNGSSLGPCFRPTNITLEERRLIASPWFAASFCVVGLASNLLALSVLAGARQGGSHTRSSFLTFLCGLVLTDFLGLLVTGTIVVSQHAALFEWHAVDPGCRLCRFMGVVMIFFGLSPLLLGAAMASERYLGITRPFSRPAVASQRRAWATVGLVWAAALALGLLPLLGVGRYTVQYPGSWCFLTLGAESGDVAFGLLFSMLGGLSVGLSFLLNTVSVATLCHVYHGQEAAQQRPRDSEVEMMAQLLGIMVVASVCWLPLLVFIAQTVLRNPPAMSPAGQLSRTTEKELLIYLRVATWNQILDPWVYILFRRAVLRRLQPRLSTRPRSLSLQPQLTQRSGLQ

Assay [7] deals with Mu-type opioid receptor (Homo sapiens, UniProt P35372).
Chain of Mu-type opioid receptor (P35372 whole entry): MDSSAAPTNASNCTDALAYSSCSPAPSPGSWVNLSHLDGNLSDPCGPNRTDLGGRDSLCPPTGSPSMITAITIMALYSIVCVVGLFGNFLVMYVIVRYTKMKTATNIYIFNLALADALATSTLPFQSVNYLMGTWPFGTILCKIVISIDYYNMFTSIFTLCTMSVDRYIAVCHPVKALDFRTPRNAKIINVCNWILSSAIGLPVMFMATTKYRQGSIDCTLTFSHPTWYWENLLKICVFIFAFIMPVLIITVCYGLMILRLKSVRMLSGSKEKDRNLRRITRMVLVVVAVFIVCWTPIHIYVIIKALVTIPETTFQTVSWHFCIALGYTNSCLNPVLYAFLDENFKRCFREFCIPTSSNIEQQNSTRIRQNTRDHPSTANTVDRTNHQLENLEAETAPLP
Assay [8] deals with T5, Adenosine receptor A3 (Homo sapiens, UniProt P0DMS8).
T5 sequence (P0DMS8 whole entry): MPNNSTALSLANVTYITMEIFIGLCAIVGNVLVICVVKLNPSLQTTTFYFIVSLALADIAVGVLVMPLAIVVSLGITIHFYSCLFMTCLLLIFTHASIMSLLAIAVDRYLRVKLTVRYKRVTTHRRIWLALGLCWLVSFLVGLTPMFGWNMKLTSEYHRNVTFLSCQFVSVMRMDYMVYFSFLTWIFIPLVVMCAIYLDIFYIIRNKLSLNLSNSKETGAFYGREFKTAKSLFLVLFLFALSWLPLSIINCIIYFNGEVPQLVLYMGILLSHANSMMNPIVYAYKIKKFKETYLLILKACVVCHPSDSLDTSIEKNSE

In assay [9] the target is Sodium-dependent serotonin transporter (Homo sapiens, UniProt P31645).
Chain of Sodium-dependent serotonin transporter (P31645 whole entry): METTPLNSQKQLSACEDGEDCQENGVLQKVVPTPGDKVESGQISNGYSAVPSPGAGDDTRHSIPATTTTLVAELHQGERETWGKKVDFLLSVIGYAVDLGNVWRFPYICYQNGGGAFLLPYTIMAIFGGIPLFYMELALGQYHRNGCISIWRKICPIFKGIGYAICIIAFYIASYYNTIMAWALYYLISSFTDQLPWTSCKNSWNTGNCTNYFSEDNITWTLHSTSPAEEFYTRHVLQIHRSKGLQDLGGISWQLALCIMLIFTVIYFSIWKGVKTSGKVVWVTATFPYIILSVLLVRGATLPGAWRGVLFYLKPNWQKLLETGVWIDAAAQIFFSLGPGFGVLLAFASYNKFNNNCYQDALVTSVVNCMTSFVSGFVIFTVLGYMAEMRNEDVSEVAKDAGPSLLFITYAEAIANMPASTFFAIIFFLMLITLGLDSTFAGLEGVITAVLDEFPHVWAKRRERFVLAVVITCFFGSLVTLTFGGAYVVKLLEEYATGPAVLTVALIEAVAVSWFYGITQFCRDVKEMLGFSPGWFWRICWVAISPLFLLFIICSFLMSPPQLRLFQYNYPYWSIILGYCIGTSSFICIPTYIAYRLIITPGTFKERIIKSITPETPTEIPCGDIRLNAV
Assay [10] addresses 5-hydroxytryptamine receptor 2A (Homo sapiens, UniProt P28223). It counts as functional, cell-based.
Assay [11] deals with Cannabinoid receptor 1 (Homo sapiens, UniProt P21554).
Chain of Cannabinoid receptor 1 (P21554 whole entry): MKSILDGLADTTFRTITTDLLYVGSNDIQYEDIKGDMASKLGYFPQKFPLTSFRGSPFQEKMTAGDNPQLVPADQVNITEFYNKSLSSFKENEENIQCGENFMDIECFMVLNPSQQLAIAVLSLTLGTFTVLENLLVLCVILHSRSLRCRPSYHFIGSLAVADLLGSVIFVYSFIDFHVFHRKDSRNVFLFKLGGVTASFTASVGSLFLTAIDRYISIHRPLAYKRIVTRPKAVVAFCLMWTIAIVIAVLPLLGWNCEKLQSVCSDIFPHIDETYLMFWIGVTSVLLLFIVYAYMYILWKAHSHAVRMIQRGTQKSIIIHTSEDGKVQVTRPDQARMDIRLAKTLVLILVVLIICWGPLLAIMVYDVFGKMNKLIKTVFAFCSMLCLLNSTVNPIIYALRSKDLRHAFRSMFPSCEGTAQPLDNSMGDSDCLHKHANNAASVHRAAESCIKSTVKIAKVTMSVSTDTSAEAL
Also: assay procedure not described here.

Chain of 5-hydroxytryptamine receptor 2A (P28223 whole entry): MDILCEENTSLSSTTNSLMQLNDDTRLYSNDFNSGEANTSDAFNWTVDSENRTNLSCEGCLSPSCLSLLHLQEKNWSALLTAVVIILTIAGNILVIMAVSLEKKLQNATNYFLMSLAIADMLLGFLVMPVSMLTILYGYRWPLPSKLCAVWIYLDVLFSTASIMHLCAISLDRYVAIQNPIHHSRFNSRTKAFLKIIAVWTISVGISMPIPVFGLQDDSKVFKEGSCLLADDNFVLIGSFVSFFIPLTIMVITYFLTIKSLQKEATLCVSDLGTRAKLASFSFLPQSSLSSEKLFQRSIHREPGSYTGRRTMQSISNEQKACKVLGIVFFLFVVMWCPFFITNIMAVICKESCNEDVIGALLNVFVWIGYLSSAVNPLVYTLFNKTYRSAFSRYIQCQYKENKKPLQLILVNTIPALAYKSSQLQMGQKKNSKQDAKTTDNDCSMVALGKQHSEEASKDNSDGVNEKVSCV

Turning to `CN(C)CCN(Cc1ccccc1)c1ccccn1` [TRIPELENNAMINE], the AC50 in assay [1] is greater than 30 µM; in [2], 19.4 µM; in assay [3], greater than 10 µM; in assay [4] it was greater than 30 µM; in assay [5], 0.619 µM; in [6], greater than 10 µM. Besides, the AC50 is greater than 30 µM in [7]; greater than 30 µM in assay [8]; 0.395 µM in assay [9]; 7.3 µM in [10]; greater than 10 µM in assay [11].
